Measured values taken from patent US12071434B2, “Heterocyclic compound” (Takeda Pharmaceutical Company Limited, priority 2018, dated 2024).

Biological target: T1, human orexin type 2 receptor (Homo sapiens, UniProt O43614)
T1 construct: expressed in transfected cells
T1 sequence (O43614 1-444): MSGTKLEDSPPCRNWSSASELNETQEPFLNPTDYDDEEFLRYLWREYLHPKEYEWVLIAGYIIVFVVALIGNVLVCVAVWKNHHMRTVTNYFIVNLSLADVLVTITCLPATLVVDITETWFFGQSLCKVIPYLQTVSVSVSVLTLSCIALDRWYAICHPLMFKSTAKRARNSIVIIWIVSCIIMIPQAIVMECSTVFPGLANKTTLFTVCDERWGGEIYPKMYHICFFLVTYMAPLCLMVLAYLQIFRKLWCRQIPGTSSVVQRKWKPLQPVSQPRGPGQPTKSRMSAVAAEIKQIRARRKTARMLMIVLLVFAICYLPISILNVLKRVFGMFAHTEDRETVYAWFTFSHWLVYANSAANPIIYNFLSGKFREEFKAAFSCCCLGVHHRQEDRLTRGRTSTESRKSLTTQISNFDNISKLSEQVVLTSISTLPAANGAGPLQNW
Experiment: Measurement of orexin type 2 receptor agonist activity (calcium fluorescence, Fluo-4 AM, FDSS) in CHO cells forcibly expressing human OX2 receptor
Format: cell-based
Conditions: test compound 3 μM, DMSO = 0%, orexin A (human) 10 nM = 100%
Procedure, shortened: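 CHO-dhfr cells stably expressing human OX2 receptor, loaded with Fluo-4 AM plus probenecid for 30 min at 37 °C, then 30 min at room temperature. Calcium fluorescence read for about 2 min 40 s after compound addition. Activity (%) scaled between DMSO (0%) and 10 nM human orexin A (100%).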

Row | Structure (SMILES) | 0X2R agonist activity (3 μM, %) [%]
1 | CC(C)n1cnc2c(c1=O)[C@@H](Cc1cccc(-c3ccccc3)c1)[C@@H](NS(=O)(=O)C1(F)CC1)CC2 (racemic) [Example 146, rac-N-[(5R,6S)-5-[([1,1′-biphenyl]-3-yl)methyl]-4-oxo-3-(propan-2-yl)-3,4,5,6,7,8-hexahydroquinazolin-6-yl]-1-fluorocyclopropane-1-sulfonamide] | 96
2 | [2H]C([2H])([2H])C([2H])([2H])n1ccc2c(c1=O)C(Cc1cccc(-c3cccc(F)c3F)c1)C(NS(C)(=O)=O)CC2 (racemic) [Example 147, rac-N-{(7S,8R)-8-[(2′,3′-difluoro[1,1′-biphenyl]-3-yl)methyl]-2-(~2~H_5_)ethyl-1-oxo-1,2,5,6,7,8-hexahydroisoquinolin-7-yl}methanesulfonamide] | 100
3 | CC(C)n1ccc2c(c1=O)[C@@H](Cc1cccc(-c3ccccc3)n1)[C@@H](NS(C)(=O)=O)CC2 (racemic) [Example 148, rac-N-[(7S,8R)-1-oxo-8-[(6-phenylpyridin-2-yl)methyl]-2-(propan-2-yl)-1,2,5,6,7,8-hexahydroisoquinolin-7-yl]methanesulfonamide] | 104
4 | CC(C)c1nn(C)c2c(c1=O)[C@@H](Cc1cccc(-c3ccccc3)c1)[C@@H](NS(C)(=O)=O)CC2 (racemic) [Example 158, rac-N-[(5R,6S)-5-[([1,1′-biphenyl]-3-yl)methyl]-1-methyl-4-oxo-3-(propan-2-yl)-1,4,5,6,7,8-hexahydrocinnolin-6-yl]methanesulfonamide] | 101
5 | CC(C)N1CNC2=C(C1=O)[C@@H](Cc1cccc(-c3ccccc3)c1)[C@@H](NS(C)(=O)=O)CC2(F)F (racemic) [Example 162, rac-N-[(5R,6S)-5-[([1,1′-biphenyl]-3-yl)methyl]-8,8-difluoro-4-oxo-3-(propan-2-yl)-1,2,3,4,5,6,7,8-octahydroquinazolin-6-yl]methanesulfonamide] | 101
6 | CCn1ccc2c(c1=O)[C@@H](Cc1cccc(-c3ccccc3)c1F)[C@@H](NS(C)(=O)=O)CC2=O (racemic) [Example 163, rac-N-{(7S,8R)-2-ethyl-8-[(2-fluoro[1,1′-biphenyl]-3-yl)methyl]-1,5-dioxo-1,2,5,6,7,8-hexahydroisoquinolin-7-yl}methanesulfonamide] | 94
7 | CC1OCC2CCC(NS(C)(=O)=O)C(Cc3cccc(-c4cccc(F)c4)c3)N2C1=O (racemic) [Example 165, rac-N-{(3R,6S,7S,9aR)-6-[(3′-fluoro[1,1′-biphenyl]-3-yl)methyl-3-methyl-4-oxooctahydropyrido[2,1-c][1,4]oxazin-7-yl}methanesulfonamide] | 97
8 | Cc1ccc2n(c1=O)[C@@H](Cc1cccc(-c3ccccc3)c1)[C@@H](NS(C)(=O)=O)CC2 (relative stereo) [Example 10, rel-N-{(3S,4S)-4-[([1,1′-biphenyl]-3-yl)methyl]-7-methyl-6-oxo-1,3,4,6-tetrahydro-2H-quinolizin-3-yl}methanesulfonamide] | 101
9 | CCc1ccc2n(c1=O)[C@@H](Cc1cccc(-c3cccc(F)c3)c1F)[C@@H](NC(=O)C(=O)N(C)C)CC2 (relative stereo) [Example 43, rel-N~2~-{(3S,4S)-4-[(2,3′-difluoro[1,1′-biphenyl]-3-yl)methyl]-7-ethyl-6-oxo-1,3,4,6-tetrahydro-2H-quinolizin-3-yl}-N~1~,N~1~-dimethylethanediamide] | 90
10 | COC1(C(=O)N[C@H]2CCc3ccc(C)c(=O)n3[C@H]2Cc2cccc(-c3cccc(F)c3)c2F)CC1 (relative stereo) [Example 56, rel-N-{(3S,4S)-4-[(2,3′-difluoro[1,1′-biphenyl]-3-yl)methyl]-7-methyl-6-oxo-1,3,4,6-tetrahydro-2H-quinolizin-3-yl}-1-methoxycyclopropane-1-carboxamide] | 93
11 | Cc1ccc2n(c1=O)[C@@H](Cc1cccc(-c3cccc(F)c3)c1)[C@@H](NS(C)(=O)=O)CC2 (relative stereo) [Example 69, rel-N-{(3S,4S)-4-[(3′-fluoro[1,1′-biphenyl]-3-yl)methyl]-7-methyl-6-oxo-1,3,4,6-tetrahydro-2H-quinolizin-3-yl}methanesulfonamide] | 94

Now from value to compound:

Row | 0X2R agonist activity (3 μM, %) [%] | Structure (SMILES)
12 | 93 | CCn1ccc2c(c1=O)[C@@H](Cc1cccc(-c3ccccc3)c1F)[C@@H](NS(C)(=O)=O)C[C@@H]2F (racemic) [Example 167, rac-N-{(5S,7S,8R)-2-ethyl-5-fluoro-8-[(2-fluoro[1,1′-biphenyl]-3-yl)methyl]-1-oxo-1,2,5,6,7,8-hexahydroisoquinolin-7-yl}methanesulfonamide]
13 | 91 | CC(C)n1cnc2c(c1=O)C(Cc1cccc(-c3ccccc3)c1)C(NS(C)(=O)=O)C(F)C2 (racemic) [Example 173, rac-N-[(5R,6R)-5-[([1,1′-biphenyl]-3-yl)methyl]-7-fluoro-4-oxo-3-(propan-2-yl)-3,4,5,6,7,8-hexahydroquinazolin-6-yl]methanesulfonamide]
14 | 100 | CC(C)n1cnc2c(c1=O)C(Cc1cccc(-c3ccccc3)c1)C(NS(C)(=O)=O)C(F)C2=O (racemic) [Example 179, N-[(5RS,6RS)-5-[([1,1′-biphenyl]-3-yl)methyl]-7-fluoro-4,8-dioxo-3-(propan-2-yl)-3,4,5,6,7,8-hexahydroquinazolin-6-yl]methanesulfonamide]
15 | 92 | CC(C)=Cc1cccc(C[C@@H]2c3c(ncn(C(C)C)c3=O)CC[C@@H]2NS(=O)(=O)C2(F)CC2)c1 (racemic) [Example 197, rac-1-fluoro-N-[(5R,6S)-5-{[3-(2-methylprop-1-en-1-yl)phenyl]methyl}-4-oxo-3-(propan-2-yl)-3,4,5,6,7,8-hexahydroquinazolin-6-yl]cyclopropane-1-sulfonamide]
16 | 85 | CC(C)n1cnc2c(c1=O)[C@@H](Cc1cccc(-c3ccccc3)c1F)[C@@H](NS(C)(=O)=O)[C@H](F)[C@H]2F (racemic) [Example 198, rac-N-[(5R,6R,7S,8S)-7,8-difluoro-5-[(2-fluoro[1,1′-biphenyl]-3-yl)methyl]-4-oxo-3-(propan-2-yl)-3,4,5,6,7,8-hexahydroquinazolin-6-yl]methanesulfonamide]
17 | 91 | Cn1cc2n(c1=O)[C@@H](Cc1cccc(-c3cc(F)cc(F)c3)c1)[C@@H](NS(C)(=O)=O)CC2 (racemic) [Example 201, rac-N-{(5S,6S)-5-[(3′,5′-difluoro[1,1′-biphenyl]-3-yl)methyl]-2-methyl-3-oxo-2,3,5,6,7,8-hexahydroimidazo[1,5-a]pyridin-6-yl}methanesulfonamide]
18 | 86 | CC(C)n1cc2n(c1=O)[C@@H](Cc1cccc(-c3ccccc3)c1)[C@@H](NS(C)(=O)=O)CC2 (racemic) [Example 203, rac-N-[(5S,6S)-5-[([1,1′-biphenyl]-3-yl)methyl]-3-oxo-2-(propan-2-yl)-2,3,5,6,7,8-hexahydroimidazo[1,5-a]pyridin-6-yl]methanesulfonamide]
19 | 91 | CCn1cc2n(c1=O)[C@@H](Cc1cccc(-c3ccccc3)c1F)[C@@H](NS(C)(=O)=O)CC2 (racemic) [Example 204, rac-N-{(5S,6S)-2-ethyl-5-[(2-fluoro[1,1′-biphenyl]-3-yl)methyl]-3-oxo-2,3,5,6,7,8-hexahydroimidazo[1,5-a]pyridin-6-yl}methanesulfonamide]
20 | 93 | CC(C)c1nn(C)c2c(c1=O)[C@@H](Cc1csc(-c3ccccc3)n1)[C@@H](NS(C)(=O)=O)C[C@H]2F (racemic) [Example 207, rac-N-[(5R,6S,8R)-8-fluoro-1-methyl-4-oxo-5-[(2-phenyl-1,3-thiazol-4-yl)methyl]-3-(propan-2-yl)-1,4,5,6,7,8-hexahydrocinnolin-6-yl]methanesulfonamide]
21 | 74 | Cn1cc2n(c1=O)[C@@H](Cc1cccc(-c3cc(F)cc(F)c3)c1F)[C@@H](NS(C)(=O)=O)CC2 (racemic) [Example 209, rac-N-{(5S,6S)-2-methyl-3-oxo-5-[(2,3′,5′-trifluoro[1,1′-biphenyl]-3-yl)methyl]-2,3,5,6,7,8-hexahydroimidazo[1,5-a]pyridin-6-yl}methanesulfonamide]
22 | 82 | CCc1c(C)n(C)c2c(c1=O)[C@@H](Cc1cccc(-c3ccccc3)c1)[C@@H](NS(C)(=O)=O)CC2 (racemic) [Example 211, rac-N-{(5R,6S)-5-[([1,1′-biphenyl]-3-yl)methyl]-3-ethyl-1,2-dimethyl-4-oxo-1,4,5,6,7,8-hexahydroquinolin-6-yl}methanesulfonamide]
23 | 52 | Cc1ccc2n(c1=O)C(Cc1ccc(-c3ccccc3)cc1)C(NS(C)(=O)=O)CC2 (racemic) [Example 214, rac-N-{(3S,4S)-4-[([1,1′-biphenyl]-4-yl)methyl]-7-methyl-6-oxo-1,3,4,6-tetrahydro-2H-quinolizin-yl}methanesulfonamide]
24 | 76 | CCc1ccc(C[C@H]2[C@@H](NS(C)(=O)=O)CCc3ccc(C)c(=O)n32)cc1 (racemic) [Example 216, rac-N-{(3S,4S)-4-[(4-ethylphenyl)methyl]-7-methyl-6-oxo-1,3,4,6-tetrahydro-2H-quinolizin-3-yl}methanesulfonamide]
